Test system: LS411N human colorectal cancer cells
Assay: LS411N colorectal cancer xenograft: tumor growth inhibition, tumor growth delay and tumor regressions
Format: in vivo, Balb/c-nude female mice
Conditions: for TGI: Day 18, vs vehicle; for Median Time to 500 mm3: study cut-off Day 67; for Tumor regressions at day 67: animals with regression of n=10 mice/group; for T/C: median time to 500 mm3, treated vs vehicle; for Tumor growth delay: time to 500 mm3 vs vehicle
Description: LS411N human colorectal cancer cells were maintained in RPMI-1640 cell culture medium supplemented with 10% fetal bovine serum at 37°C in an atmosphere of 5% CO2 in air. The cells in exponential growth phase were harvested and counted. Balb/c-nude female mice were inoculated subcutaneously at the right flank with 5x10^6 LS411N cells in 0.2 ml of PBS mixed with Matrigel (1:1) for tumor development. Six days after cell injection, animals having a tumor volume of about 200 mm^3 were randomized and allocated to 9 experimental groups (n=10 mice/group) for treatment with vehicle, compound of formula (II) at 13 mg/kg, compound of formula (II) at 20 mg/kg, tisotumab vedotin at 1 mg/kg, tisotumab vedotin at 4 mg/kg and the combinations of the two doses of compound of formula (II) with the two doses of tisotumab vedotin. Compound of formula (II) was administered intravenously every 4 days for 7 times (Days 0, 4, 8, 12, 16, 20 and 24) and tisotumab vedotin was administered intravenously once a week for two weeks (Days 0 and 7). On Day 0, tisotumab vedotin was given first and, after 1h, compound of formula (II) was administered).
Effect of treatment on tumor growth and body weight was evaluated twice times per week. Tumors were measured in two dimensions using a caliper, and the tumor volume was expressed in mm^3 using the formula: V=(L x W2)/2, where V is tumor volume, L is tumor length (the longest tumor dimension) and W is tumor width (the longest tumor dimension perpendicular to L).
From Day 18 onwards, some animals in the vehicle treated groups had to be euthanized due to tumors reaching the ethical endpoint (3000 mm^3), therefore tumor growth inhibition (TGI) for each treatment group was calculated on Day 18, when all the animals in the vehicle group were available for the calculation of the mean tumor volume.
Figure 2 and Figure 3a and Figure 3b show the tumor growth curves of individual animals in each group and the Kaplan-Meier curves representing the time needed for tumors to reach/exceed 500 mm^3, respectively. Study cut-off Day 67.
To better evaluate the combination benefit, tumor growth delay was evaluated as the time needed for tumors to reach/exceed a defined tumor volume (Table 2). The median time for tumors to reach 500 mm^3 was 7 days, 11 days, 14 days, 28 days and 37 days for vehicle, Compound of formula (II) 13 mg/kg, Compound of formula (II) 20 mg/kg, tisotumab vedotin 1 mg/kg and tisotumab vedotin 4 mg/kg single agent groups, respectively. All the combinations induced a strong tumor growth delay when compared to vehicle and single agent treated arms. The median time for tumors to reach 500 mm^3 in the combination at the lower doses of both agents, Compound of formula (II) 13 mg + tisotumab vedotin 1 mg/kg, was 65 days. For the other combination groups the median time for tumors to reach 500 mm^3 had not yet been reached at Day 67. The effect of the combination on tumor growth delay was more than additive for all the combination groups.

[1] = Compound of formula (II) 13 mg/kg iv every 4 days x7
[2] = Compound of formula (II) 13 mg/kg
[3] = Compound of formula (II) 20 mg/kg iv every 4 days x7
[4] = Compound of formula (II) 20 mg/kg
[5] = tisotumab vedotin 1 mg/kg iv Days 0 and 7
[6] = tisotumab vedotin 4 mg/kg iv Days 0 and 7

CCc1cccc(CC)c1NC(=O)c1nn(C)c2c1CCc1cnc(Nc3ccc(N4CCC(N(C)C)CC4)cc3OC)nc1-2 [Compound of formula (II), N-(2,6-diethylphenyl)-8-({4-[4-(dimethylamino)piperidin-1-yl]-2-methoxyphenyl}-amino)-1-methyl-4,5-dihydro-1H-pyrazolo[4,3-h]quinazoline-3-carboxamide]
Mean Tumor Volume (mm^3) Day 18 [1]: 751 mm^3 | TGI (Compound of formula (II) 13 mg/kg iv every 4 days x7, 13 mg/kg): 46.4% | Median Time to 500 mm3 [1]: 11 days | Tumor regressions at day 67 [2]: 0/10 | T/C [2]: 157% | Tumor growth delay [2]: 4 days | Mean Tumor Volume (mm^3) Day 18 [3]: 655 mm^3 | TGI (Compound of formula (II) 20 mg/kg iv every 4 days x7, 20 mg/kg): 52.6% | Median Time to 500 mm3 [3]: 14 days | Tumor regressions at day 67 [4]: 0/10 | T/C [4]: 200% | Tumor growth delay [4]: 7 days

Tisotumab vedotin
control of tumor growth (individual tumor growth curves) [5]: controlled tumor growth initially, but between Days 14 and 20 all tumors started growing | Mean Tumor Volume (mm^3) Day 18 [5]: 325 mm^3 | TGI [5]: 76.8% | Median Time to 500 mm3 [5]: 28 days | Tumor regressions at day 67 (tisotumab vedotin 1 mg/kg): 0/10 | T/C (tisotumab vedotin 1 mg/kg): 400% | Tumor growth delay (tisotumab vedotin 1 mg/kg): 21 days | control of tumor growth (individual tumor growth curves) [6]: controlled tumor growth and induced tumor regressions initially, but after Day 20 tumors started to regrow as well | Mean Tumor Volume (mm^3) Day 18 [6]: 147 mm^3 | TGI [6]: 89.5% | Median Time to 500 mm3 [6]: 37 days | Tumor regressions at day 67 (tisotumab vedotin 4 mg/kg): 0/10 | T/C (tisotumab vedotin 4 mg/kg): 529% | Tumor growth delay (tisotumab vedotin 4 mg/kg): 30 days

From EP4506015A1, “COMBINATION OF A MPS1 INHIBITOR AND AN ANTIBODY DRUG CONJUGATE” (Nerviano Medical Sciences S.r.l., priority 2023, dated 2025)
